Measured values as given in patent publication US12582664B2, “Treatment of fragile x syndrome with cannabidiol” (Harmony Biosciences Management, Inc., priority 2017, dated 2026).

Key:
[1] = test system: patients with FXS and comorbid ASD; experiment: Pooled analysis of Week 12 change in ABC-C Irritability versus placebo; format: in vivo, human
From the text: The data collected from the studies presented herein, and other similar studies were pooled together and analyzed. […] The subjects had moderate to severe symptoms of ASD (ADOS-2, comparison score greater than, or equal to, 5). The data presented in Table 2 is the Week 12 change in ABC-C Irritability of all patients. In previous studies (such as presented in Example 1, Table 1) the data was enriched by removing the non-completers from the analysis and only presenting data from the completers.

[2] = test system: children and adolescents with autism spectrum disorder; experiment: Aberrant Behavior Checklist-Community (ABC-C), BRIGHT study; design: species or system human; conditions: in vivo
From the text: Another test that can be used by clinicians to measure the severity of symptoms of ASD is the Aberrant Behavior Checklist-Community test (ABC-C). The original Aberrant Behavior Checklist (ABC) was designed to assess behavioral concerns of adults within institutional settings. The original ABC was later adapted to address patients who are not institutionalized and specifically to address subjects diagnosed with ASD. The Aberrant Behavior Checklist-Community (ABC-C) is used by clinicians, doctors, and researchers to access certain behaviors in non-institutionalized patients with ASD. […]
An exploratory open-label safety, tolerability and efficacy study of Zygel™ ZYN002 transdermal gel to 37 children and adolescents with autism spectrum disorder was conducted. […] ASD was confirmed by Diagnostic and Statistical Manual of Mental Disorders, 5th edition (DSM-5) diagnostic criteria to assess the safety and efficacy of ZYN002 in treating ASD-related behaviors as measured by a variety of efficacy assessments. […]
Subjects were administered a 250 or 500 mg total daily dose, administered twice daily, of CBD in the form of ZYN002 CBD transdermal gel for 14 weeks. […] The trial evaluated multiple efficacy assessments, including the ABC-C, PRAS-ASD, Autism Parenting Stress Index, Autism Impact Measure (AIM), and Clinical Global Impression-Severity (CGI-S) and Improvement (CGI-I). […]

C=C(C)C1CCC(C)=CC1c1c(O)cc(CCCCC)cc1O (stereo not drawn) [CBD, 2-[3-methyl-6-(1-methylethenyl)-2-cyclohexen-1-yl]-5-pentyl-1,3-benzenediol]
improvement in irritability, ABC-CFXS Social Avoidance score >7 compared to ≤7 ([1]; ASD subjects): twice as much improvement in irritability | subjects showing an improvement in irritability, high social avoidance and/or anxiety scores compared to lesser scores ([1]; in vivo): about twice as many subjects | improvement in irritability, PRAS score >37 compared to ≤37 [2]: twice as much improvement in irritability
